Data from PubChem BioAssay (NCI).
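How tested: cells in 96-well plates exposed to compound for 48 hours at five concentrations. GI50: concentration for 50% inhibition of growth. TGI is the concentration that stops growth completely.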

Legend:
Experiment in all cases: growth of human tumour cells (NCI), 48 h
MCF7 breast = tested on: MCF7 breast
HS 578T breast = tested on: HS 578T breast
TK-10 renal = tested on: TK-10 renal
CCRF-CEM leukemia = tested on: CCRF-CEM leukemia
MALME-3M melanoma = tested on: MALME-3M melanoma
OVCAR-5 ovarian = tested on: OVCAR-5 ovarian
T-47D breast = tested on: T-47D breast
DU-145 prostate = tested on: DU-145 prostate
HCT-116 colon = tested on: HCT-116 colon
LOX IMVI melanoma = tested on: LOX IMVI melanoma
RPMI-8226 leukemia = tested on: RPMI-8226 leukemia
HL-60(TB) leukemia = tested on: HL-60(TB) leukemia
RXF 393 renal = tested on: RXF 393 renal
NCI-H226 lung = tested on: NCI-H226 lung
KM12 colon = tested on: KM12 colon
OVCAR-3 ovarian = tested on: OVCAR-3 ovarian
SR leukemia = tested on: SR leukemia
CAKI-1 renal = tested on: CAKI-1 renal
NCI/ADR-RES ovarian = tested on: NCI/ADR-RES ovarian
SF-295 CNS = tested on: SF-295 CNS
PC-3 prostate = tested on: PC-3 prostate
SF-539 CNS = tested on: SF-539 CNS
NCI-H460 lung = tested on: NCI-H460 lung
K-562 leukemia = tested on: K-562 leukemia
OVCAR-4 ovarian = tested on: OVCAR-4 ovarian
SK-MEL-28 melanoma = tested on: SK-MEL-28 melanoma
SF-268 CNS = tested on: SF-268 CNS
ACHN renal = tested on: ACHN renal
SNB-75 CNS = tested on: SNB-75 CNS
HT29 colon = tested on: HT29 colon
MDA-MB-435 = tested on: MDA-MB-435
SK-OV-3 ovarian = tested on: SK-OV-3 ovarian
U251 CNS = tested on: U251 CNS
NCI-H522 lung = tested on: NCI-H522 lung
BT-549 breast = tested on: BT-549 breast
UO-31 renal = tested on: UO-31 renal
SK-MEL-2 melanoma = tested on: SK-MEL-2 melanoma
OVCAR-8 ovarian = tested on: OVCAR-8 ovarian
SN12C renal = tested on: SN12C renal
MOLT-4 leukemia = tested on: MOLT-4 leukemia
UACC-257 melanoma = tested on: UACC-257 melanoma
EKVX NSCLC = tested on: EKVX NSCLC
HCC-2998 colon = tested on: HCC-2998 colon
SW-620 colon = tested on: SW-620 colon
NCI-H23 lung = tested on: NCI-H23 lung
IGROV1 ovarian = tested on: IGROV1 ovarian
SK-MEL-5 melanoma = tested on: SK-MEL-5 melanoma
COLO 205 colon = tested on: COLO 205 colon
SNB-19 CNS = tested on: SNB-19 CNS
HOP-62 NSCLC = tested on: HOP-62 NSCLC
MDA-MB-231 breast = tested on: MDA-MB-231 breast
M14 melanoma = tested on: M14 melanoma
A498 renal = tested on: A498 renal
HCT-15 colon = tested on: HCT-15 colon
UACC-62 melanoma = tested on: UACC-62 melanoma
A549 NSCLC = tested on: A549 NSCLC
HOP-92 NSCLC = tested on: HOP-92 NSCLC
786-0 renal = tested on: 786-0 renal

## O=C(NNc1nc2cc(F)c(F)cc2n2cccc12)c1ccncn1
MCF7 breast
  GI50: 0.235 µM
  TGI: 3.93 µM
HS 578T breast
  GI50: 2.94 µM
  TGI: 20.4 µM
TK-10 renal
  GI50: 0.547 µM
  TGI: 5.18 µM
CCRF-CEM leukemia
  GI50: 0.142 µM
  TGI: > 30 µM
MALME-3M melanoma
  GI50: 1.5 µM
  TGI: 6.77 µM
OVCAR-5 ovarian
  GI50: 1.19 µM
  TGI: 11.4 µM
T-47D breast
  GI50: 0.353 µM
  TGI: 5.17 µM
DU-145 prostate
  GI50: 0.4 µM
  TGI: 18.2 µM
HCT-116 colon
  GI50: 0.217 µM
  TGI: 5.43 µM
LOX IMVI melanoma
  GI50: 0.191 µM
  TGI: 5.11 µM
RPMI-8226 leukemia
  GI50: 0.571 µM
  TGI: > 20.9 µM
HL-60(TB) leukemia
  GI50: 0.39 µM
  TGI: > 14.8 µM
RXF 393 renal
  GI50: 0.834 µM
  TGI: 5.16 µM
NCI-H226 lung
  GI50: 0.381 µM
  TGI: 5.66 µM
KM12 colon
  GI50: 0.331 µM
  TGI: 12.5 µM
OVCAR-3 ovarian
  GI50: 0.301 µM
  TGI: 5.16 µM
SR leukemia
  GI50: 0.146 µM
  TGI: > 12.3 µM
CAKI-1 renal
  GI50: 0.286 µM
  TGI: 4.22 µM
NCI/ADR-RES ovarian
  GI50: 0.225 µM
  TGI: 6.33 µM
SF-295 CNS
  GI50: 0.156 µM
  TGI: 3.87 µM
PC-3 prostate
  GI50: 0.309 µM
  TGI: > 13.4 µM
SF-539 CNS
  GI50: 0.596 µM
  TGI: 6.3 µM
NCI-H460 lung
  GI50: 0.161 µM
  TGI: 9.46 µM
K-562 leukemia
  GI50: 0.173 µM
  TGI: > 30 µM
OVCAR-4 ovarian
  GI50: 0.18 µM
  TGI: 3.61 µM
SK-MEL-28 melanoma
  GI50: 0.771 µM
  TGI: 6.35 µM
SF-268 CNS
  GI50: 0.408 µM
  TGI: 9.39 µM
ACHN renal
  GI50: 0.187 µM
  TGI: 3.93 µM
SNB-75 CNS
  GI50: 0.365 µM
  TGI: 6.35 µM
HT29 colon
  GI50: 0.395 µM
  TGI: 15.3 µM
MDA-MB-435
  GI50: 1.12 µM
  TGI: 6.96 µM
SK-OV-3 ovarian
  GI50: 0.522 µM
  TGI: 5.16 µM
U251 CNS
  GI50: 0.182 µM
  TGI: 7.02 µM
NCI-H522 lung
  GI50: 0.803 µM
  TGI: 11.6 µM
BT-549 breast
  GI50: 1.4 µM
  TGI: 8.94 µM
UO-31 renal
  GI50: 0.14 µM
  TGI: 4.19 µM
SK-MEL-2 melanoma
  GI50: 3.52 µM
  TGI: 11.5 µM
OVCAR-8 ovarian
  GI50: 0.253 µM
  TGI: 9.55 µM
SN12C renal
  GI50: 0.678 µM
  TGI: 9.34 µM
MOLT-4 leukemia
  GI50: 0.179 µM
  TGI: > 30 µM
UACC-257 melanoma
  GI50: 0.926 µM
  TGI: 5.88 µM
EKVX NSCLC
  GI50: 0.255 µM
  TGI: 4.93 µM
HCC-2998 colon
  GI50: 0.452 µM
  TGI: 4.55 µM
SW-620 colon
  GI50: 0.313 µM
  TGI: 12.2 µM
NCI-H23 lung
  GI50: 1.26 µM
  TGI: 11.5 µM
IGROV1 ovarian
  GI50: 0.206 µM
  TGI: 4.87 µM
SK-MEL-5 melanoma
  GI50: 0.745 µM
  TGI: 5.12 µM
COLO 205 colon
  GI50: 0.313 µM
  TGI: 4.06 µM
SNB-19 CNS
  GI50: 0.417 µM
  TGI: 10.6 µM
HOP-62 NSCLC
  GI50: 0.199 µM
  TGI: 6.66 µM
MDA-MB-231 breast
  GI50: 0.839 µM
  TGI: 6.95 µM
M14 melanoma
  GI50: 0.37 µM
  TGI: 8.6 µM
A498 renal
  GI50: 1.14 µM
  TGI: 5.62 µM
HCT-15 colon
  GI50: 0.119 µM
  TGI: 5.52 µM
UACC-62 melanoma
  GI50: 0.333 µM
  TGI: 5.14 µM
A549 NSCLC
  GI50: 0.275 µM
  TGI: 20.2 µM
HOP-92 NSCLC
  GI50: 0.697 µM
  TGI: 6.38 µM
786-0 renal
  GI50: 1.01 µM
  TGI: 6.64 µM

## COc1cc2c3c(n(CCCNC4CCC4)c(=O)c2cc1OC)-c1cc2c(cc1C3=O)OCO2
MCF7 breast
  GI50: 0.109 µM
  TGI: 1.87 µM
HS 578T breast
  GI50: 6.32 µM
  TGI: 15.8 µM
TK-10 renal
  GI50: 19 µM
  TGI: 33.7 µM
CCRF-CEM leukemia
  GI50: 0.0757 µM
  TGI: 3.55 µM
MALME-3M melanoma
  GI50: 4.34 µM
  TGI: 9.28 µM
OVCAR-5 ovarian
  GI50: 1.89 µM
  TGI: 3.44 µM
T-47D breast
  GI50: 3.73 µM
  TGI: 10.2 µM
DU-145 prostate
  GI50: 1.04 µM
  TGI: 2.56 µM
HCT-116 colon
  GI50: 1.05 µM
  TGI: 2.78 µM
LOX IMVI melanoma
  GI50: 0.36 µM
  TGI: 0.884 µM
RPMI-8226 leukemia
  GI50: 0.492 µM
  TGI: 2.18 µM
HL-60(TB) leukemia
  GI50: 0.525 µM
  TGI: 1.52 µM
RXF 393 renal
  GI50: 1.34 µM
  TGI: 2.85 µM
NCI-H226 lung
  GI50: 5.54 µM
  TGI: 26.1 µM
KM12 colon
  GI50: 2.01 µM
  TGI: 5.72 µM
OVCAR-3 ovarian
  GI50: 1.51 µM
  TGI: 3.05 µM
SR leukemia
  GI50: 0.0576 µM
  TGI: 0.793 µM
CAKI-1 renal
  GI50: 1.11 µM
  TGI: 2.37 µM
NCI/ADR-RES ovarian
  GI50: 1.09 µM
  TGI: 3.61 µM
SF-295 CNS
  GI50: 0.274 µM
  TGI: 1.74 µM
PC-3 prostate
  GI50: 1.22 µM
  TGI: 2.87 µM
SF-539 CNS
  GI50: 1.21 µM
  TGI: 2.56 µM
NCI-H460 lung
  GI50: 0.145 µM
  TGI: 1.66 µM
K-562 leukemia
  GI50: 0.554 µM
  TGI: 3.22 µM
OVCAR-4 ovarian
  GI50: 1.77 µM
  TGI: 3.33 µM
SK-MEL-28 melanoma
  GI50: 1.75 µM
  TGI: 3.38 µM
SF-268 CNS
  GI50: 0.95 µM
  TGI: 2.83 µM
ACHN renal
  GI50: 0.873 µM
  TGI: 2.36 µM
SNB-75 CNS
  GI50: 1.12 µM
  TGI: 2.64 µM
HT29 colon
  GI50: 1.28 µM
  TGI: 2.85 µM
MDA-MB-435
  GI50: 1.59 µM
  TGI: 3.05 µM
SK-OV-3 ovarian
  GI50: 0.977 µM
  TGI: 5.63 µM
U251 CNS
  GI50: 0.838 µM
  TGI: 2.87 µM
NCI-H522 lung
  GI50: 0.581 µM
  TGI: 2.49 µM
BT-549 breast
  GI50: 7.27 µM
  TGI: 22.5 µM
UO-31 renal
  GI50: 1.66 µM
  TGI: 4.53 µM
SK-MEL-2 melanoma
  GI50: 18.4 µM
  TGI: 33.7 µM
OVCAR-8 ovarian
  GI50: 1.3 µM
  TGI: 3.61 µM
SN12C renal
  GI50: 1.48 µM
  TGI: 3.19 µM
MOLT-4 leukemia
  GI50: 0.0267 µM
  TGI: 1.91 µM
UACC-257 melanoma
  GI50: 16.3 µM
  TGI: 34.2 µM
EKVX NSCLC
  GI50: 1.96 µM
  TGI: 4.14 µM
HCC-2998 colon
  GI50: 1.42 µM
  TGI: 2.82 µM
SW-620 colon
  GI50: 0.452 µM
  TGI: 2.56 µM
NCI-H23 lung
  GI50: 1.29 µM
  TGI: 3.19 µM
IGROV1 ovarian
  GI50: 1.48 µM
  TGI: 3.5 µM
SK-MEL-5 melanoma
  GI50: 5.09 µM
  TGI: 10.3 µM
COLO 205 colon
  GI50: 1.79 µM
  TGI: 6.62 µM
SNB-19 CNS
  GI50: 1.24 µM
  TGI: 3.18 µM
HOP-62 NSCLC
  GI50: 0.393 µM
  TGI: 1.97 µM
MDA-MB-231 breast
  GI50: 1.32 µM
  TGI: 2.78 µM
M14 melanoma
  GI50: 1.35 µM
  TGI: 2.8 µM
A498 renal
  GI50: 14.5 µM
  TGI: 29.2 µM
HCT-15 colon
  GI50: 1.33 µM
  TGI: 3.13 µM
UACC-62 melanoma
  GI50: 4.2 µM
  TGI: 12.5 µM
A549 NSCLC
  GI50: 1.3 µM
  TGI: 3.31 µM
HOP-92 NSCLC
  GI50: 5.26 µM
  TGI: 13.4 µM
786-0 renal
  GI50: 1.54 µM
  TGI: 3.05 µM
